The values below are quoted from earlier work in patent US6660296B2, “Sustained-release microgranules containing diltiazem as active principle” (Laboratories des Produits Ethiques Ethypharim, priority 1995, dated 2003).

The conditions of the series: neutral or basic pH; Diltiazem or its pharmaceutically acceptable salts.

On to `COc1ccc([C@@H]2Sc3ccccc3N(CCN(C)C)C(=O)[C@@H]2OC(C)=O)cc1` [Diltiazem], for which the Solubility result is on record as “sparingly soluble”.
